The record followed here is patent US20250215029A1 (Recludix Pharma, Inc., priority 2022, published 2025).

The target of one assay is T1, pY641-STAT6 in PBMC (Homo sapiens, UniProt P42226).
T1 construct: Cryopreserved Peripheral Blood Mononuclear Cells (PBMC) are from AllCells; host or cells: cryopreserved PBMC
T1 sequence (P42226 1-847): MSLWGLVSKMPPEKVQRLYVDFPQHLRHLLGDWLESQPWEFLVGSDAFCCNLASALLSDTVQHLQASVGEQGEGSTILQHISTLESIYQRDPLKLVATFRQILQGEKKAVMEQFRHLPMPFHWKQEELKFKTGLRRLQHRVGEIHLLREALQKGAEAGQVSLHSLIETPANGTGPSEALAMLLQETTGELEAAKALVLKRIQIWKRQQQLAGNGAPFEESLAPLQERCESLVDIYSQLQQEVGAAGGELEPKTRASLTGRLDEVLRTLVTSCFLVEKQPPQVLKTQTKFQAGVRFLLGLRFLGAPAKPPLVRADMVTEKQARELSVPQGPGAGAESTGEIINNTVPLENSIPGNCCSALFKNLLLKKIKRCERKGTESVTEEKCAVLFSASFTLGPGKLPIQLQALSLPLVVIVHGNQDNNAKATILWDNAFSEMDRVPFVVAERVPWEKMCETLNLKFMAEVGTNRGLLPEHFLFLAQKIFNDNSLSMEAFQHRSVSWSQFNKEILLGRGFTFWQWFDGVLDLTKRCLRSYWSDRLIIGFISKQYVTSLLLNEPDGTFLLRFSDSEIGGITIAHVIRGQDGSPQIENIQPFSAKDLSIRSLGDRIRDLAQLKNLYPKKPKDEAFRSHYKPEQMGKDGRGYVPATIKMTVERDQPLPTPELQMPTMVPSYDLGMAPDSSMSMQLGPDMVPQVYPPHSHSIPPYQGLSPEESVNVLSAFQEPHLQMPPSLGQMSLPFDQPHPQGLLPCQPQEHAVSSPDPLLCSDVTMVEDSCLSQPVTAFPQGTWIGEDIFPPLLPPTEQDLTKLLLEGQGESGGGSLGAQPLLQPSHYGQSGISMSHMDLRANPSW
Briefly: MSD-pSTAT-PBMC Assay (pSTAT6, IL-4 stimulated). It counts as cell-based. Conditions: STAT6, PBMC, compound 3 hrs, then 1 ng/mL IL-4 for 10 min; Table 115. An excerpt:
Cryopreserved Peripheral Blood Mononuclear Cells (PBMC) are from AllCells. Recombinant Human IL-4 and IL-6 are from Peprotech. Mouse monoclonal anti-STAT3 antibody, rabbit monoclonal anti-pY705-STAT3 antibody, rabbit monoclonal Anti-pY641-STAT6 antibody, and lysis buffer are from Cell Signaling Technology (CST). Mouse monoclonal anti-STAT6 antibody is from BioLegend. Assay plates, blocker, and anti-rabbit secondary antibody are from Meso Scale Discovery (MSD).
Cyropreserved PBMCs were thawed out and allowed to recover overnight in IMDM+10% heat-inactivated FBS prior to plating 50,000 (STAT3) or 25,000 (STAT6) cells per well in 96-well U-bottom tissue culture plates. Cells were treated with compound for 3 hrs, then stimulated with 10 ng/mL IL-6 (STAT3) or 1 ng/mL IL-4 (STAT6) for 10 min. Cells were then spun down and washed with ice-cold PBS prior to lysing the cell pellet with 1× lysis buffer (CST) with 1× HALT protease and phosphatase inhibitor cocktail (Thermo). Lysates were transferred to and incubated overnight at 4° C. with shaking in QuickPlex 96-well high bind assay plates (MSD) pre-coated overnight with 30 μL per well of 0.6 μg/mL mouse monoclonal anti-STAT3 antibody (STAT3) or 2 μg/mL mouse monoclonal anti-STAT6 antibody (STAT6) in 1× PBS, and pre-blocked for 1 hour with 3% Blocker-A (MSD). Captured protein in the assay plates were then washed and probed with 25 μL per well of […] rabbit monoclonal anti-pY705-STAT3 antibody (STAT3) or 0.18 μg/ml rabbit monoclonal Anti-pY641-STAT6 antibody (STAT6) in 1% Blocker-A for 1 hour at room temperature with shaking, then washed and probed with 25 ul per well of 1 ug/ml Sulfo-TAG Labeled Goat Anti-Rabbit Antibody (MSD) in 1% Blocker-A for 1 hour at room temperature with shaking. Assay plates were then washed and 150 μL of 1× Read Buffer-T (MSD) was added to each well prior to reading on an SQ120 MSD Plate Reader. Assay signal from each sample was subtracted by the signal from unstimulated control wells and normalized to DMSO control wells. IC50 values were calculated using Graph Pad Prism Dose-Response Nonlinear Regression with variable slope. For both pSTAT3 and pSTAT6 A=≤100 nM; B 100-1000 nM; C=>1000-3000 nM; D=>3 μM; and NT=Not Tested.
Regarding `CCCOC(=O)[C@H](C)NP(=O)(Oc1ccccc1)C(F)c1ccc2sc(C(=O)N[C@H]3CCCC[C@H]4CCC[C@@H](C(=O)N5CC(C#N)[C@H](c6ccccc6)C5)N4C3=O)cc2c1` (relative stereo) [Compound 269, propyl (((2-(((4S,7S,11aS)-4-((rel-trans)-3-cyano-4-phenylpyrrolidine-1-carbonyl)-6-oxodecahydro-2H-pyrido[1,2-a]azocin-7-yl)carbamoyl)benzo [b]thiophen-5-yl)fluoromethyl) (phenoxy)phosphoryl)-L-alaninate], the IC50 was less than 100 nM.

For `CCCOC(=O)[C@H](C)NP(=O)(Oc1ccccc1)C(F)c1ccc2sc(C(=O)N[C@H]3CCCCC[C@H]4[C@H](O)C[C@@H](C(=O)N5CC(C#N)[C@H](c6ccccc6)C5)N4C3=O)cc2c1` (relative stereo) [Compound 270, propyl (((2-(((1R,3S,6S,11aS)-3-((rel-trans)-3-cyano-4-phenylpyrrolidine-1-carbonyl)-1-hydroxy-5-oxodecahydro-1H-pyrrolo[1,2-a]azonin-6-yl)carbamoyl)benzo [b]thiophen-5-yl)fluoromethyl) (phenoxy)phosphoryl)-L-alaninate], the IC50 lay within 100 to 1000 nM.

The compound `CCCOC(=O)[C@H](C)NP(=O)(Oc1ccccc1)C(F)c1ccc2sc(C(=O)N[C@H]3CCCC[C@H]4CC[C@@H](C(=O)N5C[C@@H](C#N)[C@H](c6cccn(C)c6=O)C5)N4C3=O)cc2c1` (relative stereo) [Compound 299, propyl (((2-(((3S,6S,10aS)-3-(rel-(trans)-3-cyano-4-(1-methyl-2-oxo-1,2-dihydropyridin-3-yl)pyrrolidine-1-carbonyl)-5-oxodecahydropyrrolo [1,2-a]azocin-6-yl)carbamoyl)benzo [b]thiophen-5-yl)fluoromethyl) (phenoxy)phosphoryl)-L-alaninate] returned an IC50 of 100 to 1000 nM. On the same count and under the same terms, with `CCCOC(=O)[C@H](C)NP(=O)(Oc1ccccc1)C(F)c1ccc2sc(C(=O)N[C@H]3CCCC[C@H]4CC[C@@H](C(=O)N5C[C@H](c6cccnc6OC)[C@@H](C#N)C5)N4C3=O)cc2c1` (relative stereo) [Compound 322, propyl (((2-(((3S,6S,10aS)-3-((rel-trans)-3-cyano-4-(2-methoxypyridin-3-yl)pyrrolidine-1-carbonyl)-5-oxodecahydropyrrolo [1,2-a]azocin-6-yl)carbamoyl)benzo [b]thiophen-5-yl)fluoromethyl) (phenoxy)phosphoryl)-L-alaninate] the figure was less than 100 nM; with `CCCOC(=O)[C@H](C)NP(=O)(Oc1ccccc1)[C@@H](F)c1ccc2sc(C(=O)N[C@H]3CCCC[C@H]4CC[C@@H](C(=O)N5C[C@H](c6cccc(OC(F)F)c6)C(C#N)C56CC6)N4C3=O)cc2c1` (relative stereo) [Compound 338, propyl (((R)-(2-(((3S,6S,10aS)-3-((rel-trans)-7-cyano-6-(3-(difluoromethoxy)phenyl)-4-azaspiro[2.4]heptane-4-carbonyl)-5-oxodecahydropyrrolo [1,2-a]azocin-6-yl)carbamoyl)benzo [b]thiophen-5-yl)fluoromethyl) (phenoxy)phosphoryl)-L-alaninate], less than 100 nM.

For a further assay, the target named is T2, pY705-STAT3 in PBMC (Homo sapiens, UniProt P40763).
T2 construct: Cryopreserved Peripheral Blood Mononuclear Cells (PBMC) are from AllCells; host or cells: cryopreserved PBMC
T2 sequence (P40763 whole entry): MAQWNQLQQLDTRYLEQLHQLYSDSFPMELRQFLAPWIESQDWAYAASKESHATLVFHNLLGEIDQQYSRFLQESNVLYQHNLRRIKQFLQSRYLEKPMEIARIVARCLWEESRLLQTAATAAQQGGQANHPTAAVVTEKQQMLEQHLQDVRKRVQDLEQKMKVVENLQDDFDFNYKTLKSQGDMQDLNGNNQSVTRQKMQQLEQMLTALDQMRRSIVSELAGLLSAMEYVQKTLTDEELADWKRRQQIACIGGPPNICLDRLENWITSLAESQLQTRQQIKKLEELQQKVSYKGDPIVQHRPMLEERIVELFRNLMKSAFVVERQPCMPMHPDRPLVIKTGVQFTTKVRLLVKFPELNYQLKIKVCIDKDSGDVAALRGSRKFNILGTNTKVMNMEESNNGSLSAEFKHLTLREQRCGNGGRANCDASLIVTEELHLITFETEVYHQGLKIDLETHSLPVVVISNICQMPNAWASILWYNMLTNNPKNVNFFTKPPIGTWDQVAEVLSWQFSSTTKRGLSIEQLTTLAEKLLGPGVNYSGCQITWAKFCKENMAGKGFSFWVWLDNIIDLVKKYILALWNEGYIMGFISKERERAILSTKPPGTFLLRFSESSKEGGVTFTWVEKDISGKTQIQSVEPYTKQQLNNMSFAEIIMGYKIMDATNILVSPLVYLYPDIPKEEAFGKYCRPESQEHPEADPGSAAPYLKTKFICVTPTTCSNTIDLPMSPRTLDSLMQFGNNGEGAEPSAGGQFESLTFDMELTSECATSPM
Briefly: MSD-pSTAT-PBMC Assay (pSTAT3, IL-6 stimulated). Conditions: PBMC, compound 3 hrs, then 10 ng/mL IL-6 for 10 min; Table 115; read-out: STAT3. It counts as cell-based. Summed up: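 Human PBMCs were pretreated with compound for 3 h, then stimulated with 10 ng/mL IL-6 for 10 min. Lysate pY705-STAT3 was measured by MSD sandwich immunoassay (anti-STAT3 capture) and corrected for unstimulated background. Signal was normalized to DMSO, and IC50 came from variable-slope regression.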
`CC(C)CC(=O)SCCOP(=O)(OCOC(=O)OC1COC1)C(F)(F)c1ccc2sc(C(=O)N[C@H]3CCC[C@H]4CC[C@@H](C(=O)N5CC(c6ncccn6)C5)N4C3=O)cc2c1` (stereo partly drawn) [Compound 1095, S-(2-(((difluoro(2-(((3S,6S,9aS)-5-oxo-3-(3-(pyrimidin-2-yl)azetidine-1-carbonyl)octahydro-1H-pyrrolo[1,2-a]azepin-6-yl)carbamoyl)benzo [b]thiophen-5-yl)methyl) ((((oxetan-3-yloxy)carbonyl)oxy)methoxy)phosphoryl)oxy)ethyl) 3-methyl-butanethioate]: the IC50 is less than 100 nM. `CC(C)CC(=O)SCCOP(=O)(OCOC(=O)OC(C)C)[C@H](F)c1ccc2sc(C(=O)N[C@H]3CCC[C@H]4CC[C@@H](C(=O)N5CC(c6cccnc6)C5)N4C3=O)cc2c1` (stereo partly drawn) [Compound 1096, S-(2-((((S)-fluoro(2-(((3S,6S,9aS)-5-oxo-3-(3-(pyridin-3-yl)azetidine-1-carbonyl)octahydro-1H-pyrrolo[1,2-a]azepin-6-yl)carbamoyl)benzo [b]thiophen-5-yl)methyl) (((isopropoxy-carbonyl)oxy)methoxy)phosphoryl)oxy)ethyl) 3-methylbutanethioate]: the IC50 is less than 100 nM.

Consider `CC(C)CC(=O)SCCOP(=O)(OCOC(=O)O[C@@H]1CCOC1)C(F)(F)c1ccc2sc(C(=O)N[C@H]3CCC[C@H]4CC[C@@H](C(=O)N5CC(c6ncccn6)C5)N4C3=O)cc2c1` (stereo partly drawn) [Compound 1098, S-(2-(((difluoro(2-(((3S,6S,9aS)-5-oxo-3-(3-(pyrimidin-2-yl)azetidine-1-carbonyl)octahydro-1H-pyrrolo[1,2-a]azepin-6-yl)carbamoyl)benzo [b]thiophen-5-yl)methyl)((((((R)-tetrahydrofuran-3-yl)oxy)carbonyl)oxy)methoxy)phosphoryl)oxy)ethyl) 3-methylbutanethioate], for which the IC50 was less than 100 nM. Still for that read-out and setting: with `CC(C)CC(=O)SCCOP(=O)(OCOC(=O)O[C@H]1CCOC1)C(F)(F)c1ccc2sc(C(=O)N[C@H]3CCC[C@H]4CC[C@@H](C(=O)N5CC(c6ncccn6)C5)N4C3=O)cc2c1` (stereo partly drawn) [Compound 1099, S-(2-(((difluoro(2-(((3S,6S,9aS)-5-oxo-3-(3-(pyrimidin-2-yl)azetidine-1-carbonyl)octahydro-1H-pyrrolo[1,2-a]azepin-6-yl)carbamoyl)benzo [b]thiophen-5-yl)methyl)((((((S)-tetrahydrofuran-3-yl)oxy)carbonyl)oxy)methoxy)phosphoryl)oxy)ethyl) 3-methylbutanethioate] the figure was less than 100 nM; with `COCCOCC(=O)SCCOP(=O)(OCCSC(=O)COCCOC)C(F)(F)c1ccc2sc(C(=O)N[C@H]3CCC[C@H]4CC[C@@H](C(=O)N5CC(c6cccnc6)C5)N4C3=O)cc2c1` [Compound 1102, S,S′-((((difluoro(2-(((3S,6S,9aS)-5-oxo-3-(3-(pyridin-3-yl)azetidine-1-carbonyl)octahydro-1H-pyrrolo[1,2-a]azepin-6-yl)carbamoyl)benzo [b]thiophen-5-yl)methyl)phosphoryl)bis(oxy))bis(ethane-2,1-diyl)) bis(2-(2-methoxyethoxy) ethanethioate)], less than 100 nM. Same read-out and setting: next, `CC(C)CC(=O)SCCOP(=O)(OCOC(=O)OC1CCOCC1)C(F)(F)c1ccc2sc(C(=O)N[C@H]3CCC[C@H]4CC[C@@H](C(=O)N5CC(c6ncccn6)C5)N4C3=O)cc2c1` (stereo partly drawn) [Compound 1105, S-(2-(((difluoro(2-(((3S,6S,9aS)-5-oxo-3-(3-(pyrimidin-2-yl)azetidine-1-carbonyl)octahydro-1H-pyrrolo[1,2-a]azepin-6-yl)carbamoyl)benzo [b]thiophen-5-yl)methyl)(((((tetra-hydro-2H-pyran-4-yl)oxy)carbonyl)oxy)methoxy)phosphoryl)oxy)ethyl) 3-methylbutanethioate]: less than 100 nM.
